Experimental data from ChEMBL document CHEMBL6078709, “Discovery of Cyclic Lipopeptides, Octaminomycins C and D, by Engineering LysR Transcriptional Regulator of Streptomyces sp” (J Nat Prod, 2024).
Positions of bridges follow the written chain, without caps; N, C: chain ends. Non-standard residues stand in square brackets, D forms with d. Residues, ends and D or L forms follow the SMILES beside them. *: point of attachment. NMeY = CN[C@@H](Cc1ccc(O)cc1)C(=O)O; Propionyl = CCC(=O)*

Key:
Format in all cases: functional, cell-based
A549 = test: Antiproliferative activity against human A549 cells assessed as inhibition of cell growth incubated for 72 hrs by sulforhodamine B assay; settings: A549, 72 h
HUVEC = test: Antiangiogenic activity in human HUVEC cells assessed as inhibition of VEGF-induced tube formation incubated for 6 hrs by matrigel based inverted microscopic analysis
HCT-116 = test: Antiproliferative activity against human HCT-116 cells assessed as inhibition of cell growth incubated for 72 hrs by sulforhodamine B assay; settings: HCT-116, 72 h
MDA-MB-231 = test: Antiproliferative activity against human MDA-MB-231 cells assessed as inhibition of cell growth incubated for 72 hrs by sulforhodamine B assay; settings: MDA-MB-231, 72 h
SK-HEP1 = test: Antiproliferative activity against human SK-HEP1 cells assessed as inhibition of cell growth incubated for 72 hrs by sulforhodamine B assay; settings: SK-HEP1, 72 h
SNU-638 = test: Antiproliferative activity against human SNU-638 cells assessed as inhibition of cell growth incubated for 72 hrs by sulforhodamine B assay; settings: SNU-638, 72 h

| SMILES | IC50 (A549) [µM] | IC50 (HUVEC) [µM] | IC50 (HCT-116) [µM] | IC50 (MDA-MB-231) [µM] | IC50 (SK-HEP1) [µM] | IC50 (SNU-638) [µM] |
| --- | --- | --- | --- | --- | --- | --- |
| CCC(=O)N[C@@H]1C(=O)N[C@@H](Cc2ccccc2)C(=O)N[C@H](CC(C)C)C(=O)N[C@@H](C(C)C)C(=O)N2CCC[C@H]2C(=O)N[C@@H](CC(C)C)C(=O)N(C)[C@@H](Cc2ccc(O)cc2)C(=O)N2CCCC[C@H]2C(=O)O[C@@H]1C | 15.5 | > 40 | > 20 | > 20 | 17.4 | 17.2 |
| CC(=O)N[C@@H]1C(=O)N[C@@H](Cc2ccccc2)C(=O)N[C@H](CC(C)C)C(=O)N[C@@H](C(C)C)C(=O)N2CCC[C@H]2C(=O)N[C@@H](CC(C)C)C(=O)N(C)[C@@H](Cc2ccc(O)cc2)C(=O)N2CCC[C@H]2C(=O)O[C@@H]1C (Ac-TF[dL]VPL[NMeY]P; ester 1-C) | > 20 | 28 | > 20 | > 20 | 19 | 16.8 |
| CCC(=O)N[C@@H]1C(=O)N[C@@H](Cc2ccccc2)C(=O)N[C@H](CC(C)C)C(=O)N[C@@H](C(C)C)C(=O)N2CCC[C@H]2C(=O)N[C@@H](CC(C)C)C(=O)N(C)[C@@H](Cc2ccccc2)C(=O)N2CCC[C@H]2C(=O)O[C@@H]1C | 12.3 | > 40 | > 20 | 12 | 13.1 | > 20 |
| CCC(=O)N[C@@H]1C(=O)N[C@@H](Cc2ccccc2)C(=O)N[C@H](CC(C)C)C(=O)N[C@@H](C(C)C)C(=O)N2CCC[C@H]2C(=O)N[C@@H](CC(C)C)C(=O)N(C)[C@@H](Cc2ccc(O)cc2)C(=O)N2CCC[C@H]2C(=O)O[C@@H]1C (Propionyl-TF[dL]VPL[NMeY]P; ester 1-C) | > 20 | > 40 | > 20 | > 20 | > 20 | > 20 |
| COc1cc([C@@H]2c3cc4c(cc3[C@@H](O[C@@H]3O[C@@H]5CO[C@@H](C)O[C@H]5[C@H](O)[C@H]3O)[C@H]3COC(=O)[C@H]23)OCO4)cc(OC)c1O [ETOPOSIDE] | 2.73 | – | 3.16 | 2.43 | 3.78 | 1.96 |
| CCN(CC)CCNC(=O)c1c(C)[nH]c(/C=C2\C(=O)Nc3ccc(F)cc32)c1C [SUNITINIB] | – | 3.5 | – | – | – | – |
